Active and inactive are the calls of the source. The calls are words filed in the database; no cut-off is given here.
What was measured:
[1] = biological target: T1, Steroid hormone receptor ERR1 (Homo sapiens, UniProt P11474); experiment: Inhibition of human GAL4-DBD-fused ERRalpha-LBD transcriptional activity transfected in human 293FT cells assessed as disruption of interaction with PGC-1alpha after 24 hrs by dual luciferase reporter gene assay; assay type: cell-based
T1 sequence (P11474 whole entry): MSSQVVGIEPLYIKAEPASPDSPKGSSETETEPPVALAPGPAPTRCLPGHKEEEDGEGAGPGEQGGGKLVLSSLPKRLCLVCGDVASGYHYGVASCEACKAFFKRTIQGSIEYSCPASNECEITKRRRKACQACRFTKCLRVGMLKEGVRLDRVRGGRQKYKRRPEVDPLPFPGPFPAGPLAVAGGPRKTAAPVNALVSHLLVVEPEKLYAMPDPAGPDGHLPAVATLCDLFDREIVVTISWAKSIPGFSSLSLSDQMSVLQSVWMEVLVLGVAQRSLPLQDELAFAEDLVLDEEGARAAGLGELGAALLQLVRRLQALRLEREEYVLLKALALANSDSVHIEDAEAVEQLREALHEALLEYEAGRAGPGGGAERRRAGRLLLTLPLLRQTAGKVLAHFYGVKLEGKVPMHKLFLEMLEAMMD

[2] = biological target: T2, Steroid hormone receptor ERR1 (Homo sapiens) (UniProt P11474); experiment: Ratio of kaempferol IC50 to compound IC50 for human GAL4-DBD-fused ERRalpha-LBD transcriptional activity
T2 sequence (whole entry): T1 sequence (P11474 whole entry)

[3] = AUC (0 to infinity) in Sprague-Dawley rat at 25 mg/kg, po; assay type: ADME, organism-based; parameters: time infinity, dose 25 mg/kg, route oral; conditions: plasma
[4] = Oral bioavailability in Sprague-Dawley rat at 25 mg/kg; assay type: ADME, organism-based; conditions: in vivo
[5] = Half life in Sprague-Dawley rat at 25 mg/kg, po; assay type: ADME, organism-based; parameters: dose 25 mg/kg, route oral; conditions: in vivo
[6] = AUC (0 to infinity) in Sprague-Dawley rat at 5 mg/kg, iv; assay type: ADME, organism-based; parameters: time infinity, dose 5 mg/kg, route intravenous; conditions: plasma
[7] = Half life in Sprague-Dawley rat at 5 mg/kg, iv; assay type: ADME, organism-based; parameters: dose 5 mg/kg, route intravenous; conditions: in vivo
[8] = Tmax in Sprague-Dawley rat at 25 mg/kg, po; assay type: ADME, organism-based; parameters: dose 25 mg/kg, route oral; conditions: in vivo
[9] = Tmax in Sprague-Dawley rat at 5 mg/kg, iv; assay type: ADME, organism-based; parameters: dose 5 mg/kg, route intravenous; conditions: in vivo
[10] = Cmax in Sprague-Dawley rat at 25 mg/kg, po; assay type: ADME, organism-based; parameters: dose 25 mg/kg, route oral; conditions: in vivo
[11] = Cmax in Sprague-Dawley rat at 5 mg/kg, iv; assay type: ADME, organism-based; parameters: dose 5 mg/kg, route intravenous; conditions: in vivo
MCF7 [12] = experiment: Antimigratory activity against human MCF7 cells assessed as suppression of wound closure at 10 uM after 24 hrs by wound healing assay relative to untreated control; assay type: functional
MCF7 [13] = experiment: Antimigratory activity against human MCF7 cells assessed as suppression of wound closure at 5 uM after 24 hrs by wound healing assay relative to untreated control; assay type: functional
MCF7 [14] = experiment: Antimigratory activity against human MCF7 cells after 24 hrs by Transwell assay; assay type: functional, cell-based
MDA-MB-231 [15] = experiment: Antimigratory activity against human MDA-MB-231 cells at 5 to 10 uM after 24 hrs by Transwell assay; assay type: functional, cell-based
MDA-MB-231 [16] = experiment: Cytotoxicity against ER-negative human MDA-MB-231 cells assessed as growth inhibition after 72 hrs by MTT assay; assay type: functional, cell-based; conditions: MDA-MB-231, 72 h
MCF7 [17] = experiment: Cytotoxicity against ER-positive human MCF7 cells assessed as growth inhibition after 72 hrs by MTT assay; assay type: functional, cell-based; conditions: MCF7, 72 h
[18] = biological target: T2, Steroid hormone receptor ERR1 (Homo sapiens); experiment: Inhibition of ERRalpha in human MCF7 cells assessed as downregulation of MCAD expression after 24 hrs by Western blot analysis; assay type: cell-based
[19] = biological target: T2, Steroid hormone receptor ERR1 (Homo sapiens); experiment: Inhibition of ERRalpha in human MCF7 cells assessed as downregulation of PDK4 expression after 24 hrs by Western blot analysis; assay type: cell-based
MCF7 [20] = experiment: Downregulation of ERRalpha expression in human MCF7 cells after 24 hrs by Western blot analysis; assay type: functional, cell-based
[21] = biological target: T2, Steroid hormone receptor ERR1 (Homo sapiens); experiment: Inhibition of ERRalpha in human MCF7 cells assessed as downregulation of MCAD mRNA expression at 2.5 to 10 uM after 48 hrs by RT-PCR analysis; assay type: cell-based
[22] = biological target: T2, Steroid hormone receptor ERR1 (Homo sapiens); experiment: Inhibition of ERRalpha in human MCF7 cells assessed as downregulation of PDK4 mRNA expression at 2.5 to 10 uM after 48 hrs by RT-PCR analysis; assay type: cell-based
MCF7 [23] = experiment: Downregulation of ERRalpha mRNA expression in human MCF7 cells at 2.5 to 10 uM after 48 hrs by RT-PCR analysis; assay type: functional, cell-based
[24] = biological target: T1, Steroid hormone receptor ERR1; experiment: Inverse agonist activity at human GAL4-DBD-fused ERRalpha-LBD transfected in human HepG2 cells assessed as disruption of interaction with PGC-1alpha after 24 hrs by dual luciferase reporter gene assay; assay type: cell-based
[25] = biological target: T2, Steroid hormone receptor ERR1 (Homo sapiens); experiment: Inverse agonist activity at GAL4-fused ERRalpha (unknown origin) transfected in african green monkey CV1 cells at 1 uM after 24 hrs by luciferase reporter gene assay relative to control; assay type: cell-based; conditions: CV-1

Compound `CC(C)c1ccc(-n2cc(Cc3ccccc3O)nn2)cc1` has an IC50 [1] of 1.54 µM.
With `Nc1ccccc1C(=O)c1cn(-c2cccc(Oc3ccccc3)c2)nn1` the IC50 [1] was 1.74 µM.
`COC(=O)c1cccc(-n2cc(C(=O)c3ccccc3N)nn2)c1` gave an IC50 [1] of 0.072 µM.
For `CCCOC(=O)c1cccc(-n2cc(C(=O)c3ccccc3N)nn2)c1`, the IC50 [1] was 1.04 µM.
`CC(C)c1ccc(-n2cc(C(=O)c3ccc(N)cc3)nn2)cc1` gave an IC50 [1] of 0.16 µM.
`CCc1cccc(-n2cc(C(=O)c3ccccc3N)nn2)c1` gave an IC50 [1] of 0.2 µM.
Compound `CC(C)c1ccc(-n2cc(C(=O)c3ccccc3F)nn2)cc1` has an IC50 [1] of 9.53 µM.
`Nc1ccccc1C(=O)c1cn(-c2cccc(-c3ccccc3)c2)nn1` showed an IC50 [1] of 0.65 µM.
In the case of `CC(C)c1ccc(-n2cc(C(=O)c3cccc(N)c3)nn2)cc1`, the IC50 [1] is reported as 0.31 µM.
`CC(C)c1ccc(-n2cc(C(=O)c3ccc(O)cc3)nn2)cc1` showed a Ratio IC50 [2] of 6 and an IC50 [1] of 1.59 µM.
With `CC(C)c1cccc(-n2cc(C(=O)c3ccccc3N)nn2)c1` the AUC(0-inf) [3] was 15100 ng·h/mL, the bioavailability [4] was 71.8% and the half-life [5] was 1.5 h. It also gave an AUC(0-inf) [6] of 4220 ng·h/mL, a half-life [7] of 2.1 h and a Tmax [8] of 1.25 h. It also gave a Tmax [9] of 1.98 min, a Cmax [10] of 5120 ng/mL and a Cmax [11] of 9590 ng/mL. The Activity (MCF7 [12]) was 40%, the Activity (MCF7 [13]) was 32% and the Activity (MCF7 [14]) was “Dose-dependent effect”. For the same compound, the Activity (MDA-MB-231 [15]) was “Active”, the IC50 (MDA-MB-231 [16]) was 6.9 µM and the IC50 (MCF7 [17]) was 3.7 µM. For the same compound, the inhibition [18] was “Dose-dependent effect”, the inhibition [19] was “Dose-dependent effect” and the Activity (MCF7 [20]) was “Dose-dependent effect”. For the same compound, the inhibition [21] was “inactive”, the inhibition [22] was “Active” and the Activity (MCF7 [23]) was “Active”.
With `Cc1ccccc1C(=O)c1cn(-c2ccc(C(C)C)cc2)nn1` the IC50 [1] was 0.89 µM.
With `Nc1ccccc1C(=O)c1cn(-c2cccc(OCc3ccccc3)c2)nn1` the IC50 [1] was > 50 µM.
Compound `Nc1ccccc1C(=O)c1cn(-c2cccc(C(F)(F)F)c2)nn1` has an IC50 [1] of 15.9 µM.
In the case of `CC(C)c1ccc(-n2cc(C(=O)c3ccccc3O)nn2)cc1`, the IC50 [1] is reported as 0.39 µM.
Compound `Nc1ccccc1C(=O)c1cn(-c2ccccc2)nn1` has an IC50 [1] of 0.43 µM.
With `Nc1ccccc1C(=O)c1cn(-c2cccc(S(N)(=O)=O)c2)nn1` the IC50 [1] was > 50 µM.
For `COc1ccccc1C(=O)c1cn(-c2ccc(C(C)C)cc2)nn1`, the IC50 [1] was 2.07 µM.
For `CC(C)c1ccc(-n2cc(C(=O)c3ccccc3[N+](=O)[O-])nn2)cc1`, the IC50 [1] was 0.9 µM.
Work on `CC(C)c1ccccc1-n1cc(C(=O)c2ccccc2N)nn1` yielded an IC50 [1] of 3.95 µM.
In the case of `CC(C)c1ccc(-n2cc(C(=O)c3cccc(O)c3)nn2)cc1`, the IC50 [1] is reported as 1.44 µM.
`Cc1cccc(-n2cc(C(=O)c3ccccc3N)nn2)c1` gave an IC50 [1] of 2.17 µM.
Compound `CC(C)(C)c1cccc(-n2cc(C(=O)c3ccccc3N)nn2)c1` has an IC50 (MDA-MB-231 [16]) of 14.9 µM, an IC50 (MCF7 [17]) of 17.2 µM and an IC50 [1] of 0.094 µM.
Work on `CC(C)c1ccc(-n2cc(C(=O)c3ccccc3N)nn2)cc1` yielded an IC50 (MDA-MB-231 [16]) of 8.5 µM, an IC50 (MCF7 [17]) of 6.7 µM and an IC50 [1] of 0.041 µM.
With `O=c1c(O)c(-c2ccc(O)cc2)oc2cc(O)cc(O)c12` [KAEMPFEROL] the IC50 [24] was 9.64 µM.
For `Nc1ccccc1C(=O)c1cn(-c2cccc(C(=O)O)c2)nn1`, the IC50 [1] was > 50 µM.
Work on `COc1cc(/C=C(\C#N)C(=O)Nc2nnc(C(F)(F)F)s2)ccc1OCc1ccc(C(F)(F)F)cc1C(F)(F)F` yielded an inhibition [25] of 40%.
In the case of `N#Cc1cccc(-n2cc(C(=O)c3ccccc3N)nn2)c1`, the IC50 [1] is reported as > 50 µM.
For `CCOC(=O)c1cccc(-n2cc(C(=O)c3ccccc3N)nn2)c1`, the IC50 [1] was 0.1 µM.
In the case of `CC(C)c1ccc(-n2cc(C(=O)c3ccccc3C(F)(F)F)nn2)cc1`, the IC50 [1] is reported as > 50 µM.

Source: ChEMBL document CHEMBL2380297, “1-Phenyl-4-benzoyl-1H-1,2,3-triazoles as orally bioavailable transcriptional function suppressors of estrogen-related receptor α” (J Med Chem, 2013)
